According to publication PMC13410438, “Self‐Assembling Cationic Lipopeptides for the Construction of Functional Vesicular Gene‐Delivery Systems” (Small (Weinheim an Der Bergstrasse, Germany), 2026):
Square brackets hold non-standard residues; d marks the D form. Peptide text beside a SMILES is read from it. * marks the point of attachment. Oleoyl = CCCCCCCC/C=C\CCCCCCCC(=O)*; Dap = NC[C@H](N)C(=O)O

What was measured:
[1] = system: iMSCs; test: Cell viability after pGFP transfection (cell number vs untransfected control); format: cell-based; conditions: pGFP complexes, LP1 100 µg/mL, LP2 40 µg/mL
Experimental: In parallel, in situ transfection of iMSCs was evaluated by confocal microscopy (Nikon, Tokyo, Japan) based on GFP expression (Figure 7a). Transfection efficiency was quantified using ImageJ software by calculating the percentage of GFP‐positive cells relative to the total number of cells in four randomly selected fields per condition (Figure 7b). Cell viability was determined by comparing the number of cells in each sample with that of the untransfected control (Figure 7c).

[2] = system: HEK 293T cells; test: Cell viability (CCK8) after lipopeptide/placZ transfection; format: cell-based; conditions: 24 h
Experimental: (§1) Lipopeptide (LP1 or LP2) was dissolved in MeOH in order to create a lipid film with a desired concentration. Afterwards, the organic solvent was removed under nitrogen flow, obtaining the corresponding lipid film. The film was then hydrated with 1 mL of OptiMEM Reduced Serum Medium (1X). Lipopeptide/pDNA complexes were then formed by mixing placZ or pGFP plasmid (742 ng) with the corresponding lipopeptide (LP1 or LP2) solution to obtain various concentrations (2.5–50 µg/mL), thus being able to carry out different analysis. All mixtures were allowed to complex for 30 min at rt before being used in different experiments. Lipofectamine was used as positive control; their corresponding lipoplexes were prepared with the same plasmid concentrations and the recommended reagent volume, according to the manufacturer instructions.
(§2) HEK 293T (75000 cells/well in 48 well‐plates) or iMSCs (10000 cells/well in 96 well‐plates) were allowed to attach for 24 h at 37 °C before the experiments. Then, cells were transfected with lipopeptide (LP1 or LP2)/pDNA (placZ or pGFP) complexes and incubated for 24 h at 37 °C and 5% CO2. Untransfected cells (negative control) or cells transfected with Lipofectamine (positive control) were assessed in parallel. All conditions were evaluated by quadrupled.
(§3) Viability of the cell monolayers was monitored at 24 h using the CCK8 reagent, following the supplier's instructions (Neo Biotech, France). Briefly, cells were washed with 1X PBS (pH 7.4), and then incubated with CCK8 reagent (100 µL; 1:10 dilution in DMEM) for at least 2 h at 37 °C and 5% CO2. The absorbance (Abs) signal at 450 nm was measured in a Sinergy HTX Plate reader. Cell viability was obtained with the following formula: Cellviability%=Abssample450nm/Abscontrol450nm×100

[3] = system: iMSCs; test: as above; format: cell-based; conditions: 24 h
Experimental: as §1, §2, §3

| SMILES | cytotoxicity / cell viability compared with LPF [1] | cell viability [2] | cell viability [3] | Z-potential [mV] |
| --- | --- | --- | --- | --- |
| CCCCCCCC/C=C\CCCCCCCC(=O)NC[C@H](NC(=O)CCCCCCC/C=C\CCCCCCCC)C(=O)N[C@@H](CCCCN)C(=O)N[C@@H](CCCCN)C(=O)N[C@@H](CCCCN)C(=O)O [LP1, Dioleoyl‐DapKKK] (Oleoyl-[Dap](Oleoyl)KKK-OH) | higher cytotoxicity than LPF | above 75% | above 75% | 25.2 |
| CCCCCCCC/C=C\CCCCCCCC(=O)NCCCC[C@H](NC(=O)CCCCCCC/C=C\CCCCCCCC)C(=O)N[C@@H](CCCCN)C(=O)N[C@@H](CCCCN)C(=O)N[C@@H](CCCCN)C(=O)O [LP2, Dioleoyl‐KKKK] (Oleoyl-K(Oleoyl)KKK-OH) | higher than in the LPF group | above 75% | above 75% | 25.2 |
